These are literature values, as cited in US20160128912A1, “Personal Care Compositions and Hangers” (The Procter & Gamble Company, priority 2014, published 2016).

With `Oc1cc(Cl)ccc1Oc1ccc(Cl)cc1Cl` [Triclosan, reference compound], the “Log (water Solubility in mol/L)” value is −2.46. Take `C=CCCCCCCCCC(=O)O` [Undecylenic Acid]: the “Log (water Solubility in mol/L)” value is −3.15. As for `C/C=C/C=C/C(=O)O` [sorbic acid], the “Log (water Solubility in mol/L)” value is listed as −0.33. As to `OCc1ccccc1` [benzyl Alcohol], the “Log (water Solubility in mol/L)” value is on record as −0.47. With `O=C(O)c1ccccc1O` [Salicylic acid, reference compound], the “Log (water Solubility in mol/L)” value is given as −1.41. Turning to `CCCCCCC(O)CO` (centres unmarked) [caprylyl glycol], the “Log (water Solubility in mol/L)” value is reported as −3.08. For the compound `CCOC(=O)c1ccc(O)cc1` [ethyl paraben], the “Log (water Solubility in mol/L)” value is on record as −1.91.

In the case of `OCCc1ccccc1` [phenethyl alcohol], the “Log (water Solubility in mol/L)” value is reported as −0.83.
